These results are taken from patent US11285156B2, “Substituted piperazines as KRAS G12C inhibitors” (Amgen Inc., priority 2018, dated 2022).

Like-named read-outs stand apart in the source and are kept apart here. Where only a bound is given, the exact number is not on record here.

Assay [1] addresses GDP-bound KRAS protein (aa 1-169), containing both G12C and C118A amino acid substitutions (Homo sapiens (Human), UniProt P01116, C118A/G12C). The experiment in a line: Coupled nucleotide exchange assay (SOS-mediated nucleotide exchange, AlphaScreen). It is filed as biochemical. The settings on record: 5 min compound pre-incubation; for IC50: read-out: Coupled exchange IC50 (5 min; μM). Background: Alpha assays give light when donor and acceptor beads are brought close together.

For assay [2], the system named is Phosphorylation of ERK1/2 in MIA PaCa-2 cells. Nature of the assay: Phospho-ERK1/2 MSD assay in MIA PaCa-2 cells. The settings on record: read-out: p-ERK IC50 (2 h, MiaPaCa-2; μM), 2 h compound treatment, MIA PaCa-2 cells, EGF stimulated. It is filed as cell-based. A digest of the protocol: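 Phospho-ERK1/2 measured by MSD electrochemiluminescence kit in RIPA lysates of MIA PaCa-2 cells. Cells were treated with compound titrations for 2 or 4 h at 37 °C, 5% CO2, followed by a 10 min pulse of 10 ng/mL EGF.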

Assay [3] concerns Phosphorylation of ERK1/2 in A549 cells. The experiment in a line: Phospho-ERK1/2 MSD assay in A549 cells. The class given is cell-based. The settings on record: read-out: p-ERK IC50 (2 h, A549; μM), 2 h compound treatment, A549 cells, EGF stimulated. Put shortly: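 Readout: MSD phospho-ERK1/2 signal after compound (2 or 4 h) and 10 min EGF stimulation at 10 ng/mL.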

Chain of GDP-bound KRAS protein (aa 1-169), containing both G12C and C118A amino acid substitutions (P01116 other isoform, or with tags, fused parts or gaps G12C/C118A): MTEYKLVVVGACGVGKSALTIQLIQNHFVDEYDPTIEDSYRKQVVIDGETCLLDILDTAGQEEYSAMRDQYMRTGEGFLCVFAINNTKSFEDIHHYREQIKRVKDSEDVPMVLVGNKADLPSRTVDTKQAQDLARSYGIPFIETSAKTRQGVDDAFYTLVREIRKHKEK

Consider `C=CC(=O)N1C[C@H](C)N(c2nc(=O)n(-c3c(C)ccnc3C(C)C)c3nc(-c4cc(F)c(F)cc4O)c(Cl)cc23)C[C@H]1C` (atropisomer, axis not shown; (M)) [Example 124-13, (M)-6-Chloro-7-(4,5-difluoro-2-hydroxy-phenyl)-4-[(2S,5R)-2,5-dimethyl-4-prop-2-enoyl-piperazin-1-yl]-1-(2-isopropyl-4-methyl-3-pyridyl)pyrido[2,3-d]pyrimidin-2-one], for which the IC50 (as a rule, the point on the concentration scale where inhibition reaches its midpoint) was 0.068 µM in assay [1]; 0.094 µM in assay [2] (Homo sapiens, MIA PaCa-2, 2 h); over 7.5 µM in assay [3] (Homo sapiens, A549, 2 h).
In the same order, the values of `C=CC(=O)N1C[C@H](C)N(c2nc(=O)n(-c3c(C)ccnc3C(C)C)c3nc(-c4cccc(F)c4C)c(Cl)cc23)C[C@H]1C` (atropisomer, axis not shown; (M)) [Example 92-59, (M)-6-Chloro-4-[(2S,5R)-2,5-dimethyl-4-prop-2-enoyl-piperazin-1-yl]-7-(3-fluoro-2-methyl-phenyl)-1-(2-isopropyl-4-methyl-3-pyridyl)pyrido [2,3-d]pyrimidin-2-one] are 0.028 µM, 0.034 µM and over 7.5 µM.
Turning to `C=CC(=O)N1C[C@H](C)N(c2nc(=O)n(-c3c(C(C)C)nc(N(C)C(C)=O)nc3C(C)C)c3nc(-c4ccccc4F)c(Cl)cc23)C[C@H]1C` [Example 187, N-[5-[6-Chloro-4-[(2S,5R)-2,5-dimethyl-4-prop-2-enoyl-piperazin-1-yl]-7-(2-fluorophenyl)-2-oxo-pyrido[2,3-d]pyrimidin-1-yl]-4,6-diisopropyl-pyrimidin-2-yl]-N-methyl-acetamide], the “Coupled exchange IC50 (5 min; μM)” value in assay [1] was determined as 0.09 µM. Besides, the IC50 in assay [2] (Homo sapiens, MIA PaCa-2, 2 h) is 0.081 µM; in assay [3] (Homo sapiens, A549, 2 h), 0.317 µM.
Consider `C=CC(=O)N1C[C@H](C)N(c2nc(=O)n(-c3c(Cl)ncnc3C(C)C)c3nc(-c4ccccc4F)c(Cl)cc23)C[C@H]1C` (single isomer, unassigned) [Example 102-5-2], for which the IC50 is 0.173 µM in assay [1], 0.873 µM in assay [2] and over 7.5 µM in assay [3].
`C=CC(=O)N1C[C@H](C)N(c2nc(=O)n(-c3c(N(CC)CC)ccnc3C(C)C)c3nc(-c4ccccc4C(C)C)c(Cl)cc23)C[C@H]1C` [Example 103-5, 6-Chloro-1-[4-(diethylamino)-2-isopropyl-3-pyridyl]-4-[(2S,5R)-2,5-dimethyl-4-prop-2-enoyl-piperazin-1-yl]-7-(2-isopropylphenyl) pyrido[2,3-d]pyrimidin-2-one]: the IC50 was 0.2 µM in assay [1]; 0.507 µM in assay [2] (Homo sapiens, MIA PaCa-2, 2 h); over 7.5 µM in assay [3] (Homo sapiens, A549, 2 h).
As for `C=CC(=O)N1C[C@H](C)N(c2nc(=O)n(-c3c(C(C)C)ncn(C)c3=O)c3nc(-c4ccccc4F)c(Cl)cc23)C[C@H]1C` [Example 103-2, 6-Chloro-4-[(2S,5R)-2,5-dimethyl-4-prop-2-enoyl-piperazin-1-yl]-7-(2-fluorophenyl)-1-(4-isopropyl-1-methyl-6-oxo-pyrimidin-5-yl)pyrido[2,3-d]pyrimidin-2-one], the IC50 in assay [1] was 0.084 µM; in assay [2] (Homo sapiens, MIA PaCa-2, 2 h), 0.04 µM; in assay [3] (Homo sapiens, A549, 2 h), over 7.5 µM.
In the case of `C=CC(=O)N1C[C@H](C)N(c2nc(=O)n(-c3c(C)cc(S(C)(=O)=O)cc3C(C)C)c3nc(-c4ccccc4F)c(Cl)cc23)C[C@H]1C` (single isomer, unassigned) [Example 215-2], the “Coupled exchange IC50 (5 min; μM)” value in assay [1] was found to be 0.055 µM. Further, the IC50 in assay [2] (Homo sapiens, MIA PaCa-2, 2 h) was 0.086 µM; in assay [3] (Homo sapiens, A549, 2 h) it was over 7.5 µM.
For `C=CC(=O)N1CCN(c2nc(=O)n(CC(C)(C)C)c3nc(-c4ccccc4F)c(Cl)cc23)CC1CC#N` (single isomer, unassigned) [Example 145-1-1, 2-[4-[6-Chloro-1-(2,2-dimethylpropyl)-7-(2-fluorophenyl)-2-oxo-pyrido[2,3-d]pyrimidin-4-yl]-1-prop-2-enoyl-piperazin-2-yl]acetonitrile], the IC50 in assay [1] turned out to be 1.71 µM; in assay [2], 1.3 µM; in assay [3], 5.53 µM.
As to `C=CC(=O)N1C[C@H](C)N(c2nc(=O)n(-c3c(C)ccnc3C(C)C)c3nc(-c4cccc5cc[nH]c45)c(Cl)cc23)C[C@H]1C` (atropisomer, axis not shown; (M)) [Example 92-11, (M)-6-Chloro-4-[(2S,5R)-2,5-dimethyl-4-prop-2-enoyl-piperazin-1-yl]-7-(lH-indol-7-yl)-1-(2-isopropyl-4-methyl-3-pyridyl)pyrido [2,3-d]pyrimidin-2-one], the IC50 in assay [1] was 0.086 µM; in assay [2] (Homo sapiens, MIA PaCa-2, 2 h), 0.262 µM; in assay [3] (Homo sapiens, A549, 2 h), over 7.5 µM.
In the case of `C=CC(=O)N1C[C@H](C)N(c2nc(=O)n(-c3c(CC)ccnc3C(C)C)c3nc(-c4ccccc4F)c(Cl)cc23)C[C@H]1C` (single isomer, unassigned) [Example 55-58-2], the values for the IC50 in assay [1], in assay [2] and in assay [3] were 0.092 µM, 0.101 µM and over 7.5 µM, respectively.
`C=CC(=O)N1C[C@H](C)N(c2nc(=O)n(-c3c(C)ccnc3C(C)C)c3nc(-c4c(F)cccc4NC(=O)C(F)(F)F)c(Cl)cc23)C[C@H]1C` (atropisomer, axis not shown; (M)) [Example 129-2, (M)-N-[2-[6-Chloro-4-[(2S,5R)-2,5-dimethyl-4-prop-2-enoyl-piperazin-1-yl]-1-(2-isopropyl-4-methyl-3-pyridyl)-2-oxo-pyrido[2,3-d]pyrimidin-7-yl]-3-fluoro-phenyl]-2,2,2-trifluoro-acetamide]: the IC50 in assay [1] is 0.065 µM; in assay [2] (Homo sapiens, MIA PaCa-2, 2 h) it was 0.027 µM; in assay [3] (Homo sapiens, A549, 2 h) it was over 7.5 µM.
Turning to `C=CC(=O)N1C[C@H](C)N(c2nc(=O)n(-c3c(N(CC)CC)ccnc3C(C)C)c3nc(-c4ccccc4C(C)C)c(Cl)cc23)C[C@H]1C` (single isomer, unassigned) [Example 103-6-2], the half-maximal inhibitory concentration (IC50) in assay [1] amounted to 0.112 µM; in assay [2], 0.26 µM; in assay [3], 5.19 µM.
As for `C=CC(=O)N1CCN(c2nc(=O)n(CC(C)(C)C#N)c3nc(-c4ccccc4F)c(Cl)cc23)[C@@H](C)C1` [Example 106-9, 3-[6-Chloro-7-(2-fluorophenyl)-4-[(2S)-2-methyl-4-prop-2-enoyl-piperazin-1-yl]-2-oxo-pyrido[2,3-d]pyrimidin-1-yl]-2,2-dimethyl-propanenitrile], the IC50 in assay [1] was 3.7 µM; in assay [2] (Homo sapiens, MIA PaCa-2, 2 h), 2.24 µM; in assay [3] (Homo sapiens, A549, 2 h) it was over 7.5 µM.
In the case of `C=CC(=O)N1C[C@H](C)N(c2nc(=O)n(-c3c(C)cc([S+](C)[O-])cc3C(C)C)c3nc(-c4ccccc4C)c(Cl)cc23)C[C@H]1C` (stereo partly drawn) [Example 213, 4-((2S,5R)-4-Acryloyl-2,5-dimethylpiperazin-1-yl)-6-chloro-1-(2-isopropyl-6-methyl-4-(methylsulfinyl)phenyl)-7-(o-tolyl)pyrido[2,3-d]pyrimidin-2(1H)-one], the IC50 in assay [1] was 0.182 µM; in assay [2] (Homo sapiens, MIA PaCa-2, 2 h) it was 0.104 µM; in assay [3] (Homo sapiens, A549, 2 h), over 7.5 µM.
For `C=CC(=O)N1C[C@H](C)N(c2nc(=O)n(-c3c(C(C)C)ccnc3C(C)C)c3nc(-c4ccccc4F)c(Cl)cc23)C[C@H]1C` [Example 125-1, 4-((2S,5R)-4-Acryloyl-2,5-dimethylpiperazin-1-yl)-6-chloro-1-(2,4-diisopropylpyridin-3-yl)-7-(2-fluorophenyl)pyrido[2,3-d]pyrimidin-2(1H)-one], the results for the IC50 in assay [1], in assay [2] and in assay [3] were 0.028 µM, 0.055 µM and over 7.5 µM, respectively.
In the case of `C=CC(=O)N1C[C@H](C)N(c2nc(=O)n(-c3c(N(C)C)ccnc3C(C)C)c3nc(-c4c(F)cccc4NC(=O)C4CC4)c(Cl)cc23)C[C@H]1C` (single isomer, unassigned) [Example 122-3-2], the IC50 in assay [1] is 0.179 µM; in assay [2] (Homo sapiens, MIA PaCa-2, 2 h), 0.145 µM; in assay [3] (Homo sapiens, A549, 2 h), over 7.5 µM.
Regarding `C=CC(=O)N1C[C@H](C)N(c2nc(=O)n(-c3c(C)ccnc3C(C)C)c3nc(-c4cccnc4N)c(Cl)cc23)C[C@H]1C` (atropisomer, axis not shown; (M)) [Example 92-13, (M)-7-(2-Amino-3-pyridyl)-6-chloro-4-[(2S,5R)-2,5-dimethyl-4-prop-2-enoyl-piperazin-1-yl]-1-(2-isopropyl-4-methyl-3-pyridyl)pyrido [2,3-d]pyrimidin-2-one], the IC50 was 0.201 µM in assay [1]; 0.251 µM in assay [2] (Homo sapiens, MIA PaCa-2, 2 h); over 7.5 µM in assay [3] (Homo sapiens, A549, 2 h).
As for `C=CC(=O)N1C[C@H](C)N(c2nc(=O)n3c4nc(c(Cl)cc24)-c2ccccc2C/C=C/Cc2ccccc2-3)C[C@H]1C` (single isomer, unassigned) [Example 146-3-2], the IC50 in assay [1] was 4.4 µM; in assay [2] (Homo sapiens, MIA PaCa-2, 2 h), 1.05 µM; in assay [3] (Homo sapiens, A549, 2 h), over 7.5 µM.
For `C=CC(=O)N1C[C@H](C)N(c2nc(=O)n(-c3c(C)ccnc3C(C)C)c3nc(-c4ccc(F)cc4F)c(Cl)cc23)C[C@H]1C` (atropisomer, axis not shown; (M)) [Example 92-61, (M)-6-Chloro-7-(2,4-difluorophenyl)-4-[(2S,5R)-2,5-dimethyl-4-prop-2-enoyl-piperazin-1-yl]-1-(2-isopropyl-4-methyl-3-pyridyl)pyrido [2,3-d]pyrimidin-2-one], the half-maximal inhibitory concentration (IC50) was 0.008 µM in assay [1]; 0.027 µM in assay [2] (Homo sapiens, MIA PaCa-2, 2 h); over 7.5 µM in assay [3] (Homo sapiens, A549, 2 h).
